# In patent publication US10220033B2, “Substituted benzoxazepine for cancer therapy” (University of Cape Town, priority 2014, dated 2019):
# Experiments:
# [1] = system: p65/NFκB transcriptional activity in CaSki cells; assay: p65 luciferase reporter assay; assay type: cell-based; conditions: 10 or 15 μM, 24 hours (FIG. 15)
# Experimental: To assay for AP-1 and p65 luciferase activities, 40 000 CaSki cells were plated in 24-well plates, and transfected with 50 ng of an API luciferase reporter (containing four copies of the AP-1 binding site) or 50 ng of a p65 luciferase reporter (containing five copies of the p65 binding site, Clontech, CA, USA) and 5 ng pRL-TK (encoding Renilla luciferase, Promega), using 0.16 μl TransFectin™ lipid reagent (Bio-Rad, Hercules, Calif., USA). The following day cells were treated with 10 or 15 μM Compound A. Luciferase activity was measured 24 hours after Compound A treatment using the Dual-LuciferaseR Reporter assay system (Promega, Madison, Wis., USA), according to the manufacturers' instructions. Luciferase readings were measured using the Veritas™ microplate luminometer (Promega) and luciferase readings were normalised to Renilla luciferase in the same extract.
# Cytochrome C release = assay: Mitochondrial and cytoplasmic protein extraction, Cytochrome C Western Blot; assay type: cell-based; conditions: varying concentrations, 24 hours (FIG. 27)
# Experimental: Cells were grown in 10 cm plates and treated with varying concentrations of Compound A for 24 hours. Cells were lysed in subcellular fractionation buffer (250 mM sucrose, 20 mM HEPES, 10 mM KCl, 1.5 mM MgCl2, 1 mM EDTA, 1 mM EGTA, 1 mM DTT and 1× complete protease inhibitor cocktail (Roche)), passed through a 25G needle and incubated on ice for 20 minutes. The nuclear pellet was obtained after centrifugation at 720 g for 5 minutes. The supernantant was further centrifuged at 10,000 g and the resulting supernatant used as the cytoplasmic fraction. The pellet containing the mitochondrial fraction was washed in subcellular fractionation buffer and passed through a 25G needle. The mitochondrial fraction was pelleted at 10,000 g and resuspended in RIPA buffer. Western Blot analysis was performed using a mouse anti-Cytochrome C antibody (BD Pharmingen, San Diego, Calif.), and anti-β-tubulin (H235) (sc-9104, Santa Cruz) and anti-Pereroxiredoxin-3 (PRDX-3) (P1247, Sigma) antibodies were used as protein loading controls for cytoplasmic and mitochondrial fractions, respectively.
# Solubility = assay type: physicochemical; conditions: in dimethylsulfoxide (DMSO)
smiles,measurement,setting,value
"CN(C)CCCn1c(N)c(-c2nc3ccccc3[nH]2)c2nc3ccccc3nc21 [Compound A, 3-(1H-benzimidazol-2-yl)-1-(3-dimethylaminopropyl)pyrrolo[5,4-b]quinoxalin-2-amine]",p65 luciferase activity,[1],decreased in a dose-dependent manner
same,release of Cytochrome C from the mitochondria into the cytoplasm,Cytochrome C release,"release of Cytochrome C from the mitochondria into the cytoplasm, in a dose-dependent manner"
same,solubility,Solubility,soluble
